pIC50: −log10 of the molar value.

Sequence of IDO1 (P14902 whole entry): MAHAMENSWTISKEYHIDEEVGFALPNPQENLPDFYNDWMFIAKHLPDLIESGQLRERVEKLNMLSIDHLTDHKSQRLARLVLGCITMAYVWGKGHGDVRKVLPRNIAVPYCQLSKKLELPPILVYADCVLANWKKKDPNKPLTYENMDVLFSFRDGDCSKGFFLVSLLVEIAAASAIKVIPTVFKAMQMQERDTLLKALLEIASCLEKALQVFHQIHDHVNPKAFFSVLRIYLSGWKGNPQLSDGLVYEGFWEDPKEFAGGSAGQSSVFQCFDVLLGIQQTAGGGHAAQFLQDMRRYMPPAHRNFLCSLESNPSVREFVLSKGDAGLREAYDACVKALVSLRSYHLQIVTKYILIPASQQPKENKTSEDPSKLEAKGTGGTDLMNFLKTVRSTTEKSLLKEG

The target of the test is IDO1 (Homo sapiens, UniProt P14902). Description: IDO1 Human Whole Blood Assay. In kind it is cell-based. As to conditions: WBLD taken as whole blood; read-out: WBLD IC50. The method, then:
Compounds to be tested were serially diluted in ten 3-fold steps in DMSO starting from 10 mM. 3 μL of compound dilutions or DMSO alone were then dispensed from the dilution plate into a polypropylene 96-well assay plate containing 97 μL of RPMI medium using an Echo 555 acoustic liquid handler (Labcyte). LPS and IFNγ was prepared in RPMI medium to a 10× of final conc. (1000 ng/mL), final concentration is 100 ng/mL.
Human whole blood was drawn in sodium heparin coated tubes from healthy internal donors. 240 μL of blood was transferred to each of the wells of a v-bottom 96 well plate. 30 μL of compound was transferred from intermediate dilution plate, and incubated for 15 min. 30 μL from stimulants was then transferred to blood and mixed thoroughly. Plate was covered with breathable membrane and incubated at 37° C. for overnight (18 h).
On day 2, isotope labeled standard solutions of kunurenine and tryptophan was made in water at 10× concentration and 30 μL was added to the blood at 3 μM final concentration. The assay plates were centrifuged at 300×G for 10 min with no brake to separate plasma from red blood cells. 60 μL of plasma samples was removed without disturbing red blood cells. Plasma was diluted with RPMI in 1:1 ratio and proteins were precipitated out with two volumes of Acetonitrile. The plates were centrifuged at 4000×G for 60 min. 20 μL of supernatant was carefully transferred to a 384 well plate containing 40 μL of 0.1% formic acid in water and analyzed by LC/MS/MS.
LC/MS/MS analyses were performed using Thermo Fisher's LX4-TSQ Quantum Ultra system. This system consists of four Agilent binary high-performance liquid chromatography (HPLC) pumps and a TSQ Quantum Ultra triple quadrupole MS/MS instrument. For each sample, 5 μL were injected onto an Atlantis T3 column (2.1 mm×150 mm, 3 μm particle size) from Waters. The mobile phase gradient pumped at 0.8 mL/min was used to elute the analytes from the column at 25° C. The elution started at 0% B increasing linearly to 25% B at 6.5 min, holding at 25% for 1 min, re-equilibrating to 10 min. Mobile phase A consisted of 0.1% formic acid in water. Mobile phase B consisted of 0.1% of formic acid in acetonitrile. Data were acquired in positive mode using a HESI interface. The operational parameters for the TSQ Quantum Ultra instrument were a spray voltage of 4000 V, capillary temperature of 380° C., vaporizer temperature 400° C., shealth gas 60 arbitrary units, Aux gas 20 arbitrary units, tube lens 85 and collision gas 1.2 mTorr. SRM chromatograms of kynurenine (Q1: 209.2>Q3:94.0) and internal standard (Q1: 215.3>Q3:98.2) were collected for 90 sec. The peak area was integrated by Xcalibur Quan software. The ratios between the kynurenine generated in the reaction and 2D6-Kynurenine spiked-in internal standard were used to generate percentage inhibition and IC50 values. Compounds were titrated and IC50's were calculated by 4 parameter sigmoidal curve fitting formula.
For `Cc1ccccc1OC1CCN(C(=O)Cn2nc(C(=O)N3CC[C@H](O)[C@H](F)C3)c3c2CCCC3)CC1` [Example 31, 2-(3-((3R,4S)-3-fluoro-4-hydroxypiperidine-1-carbonyl)-4,5,6,7-tetrahydro-1H-indazol-1-yl)-1-(4-(o-tolyloxy)piperidin-1-yl)ethanone], the pIC50 is 6.23.

For the compound `Cc1ccccc1OC1CCN(C(=O)Cn2nc(C(=O)N3CCC(O)CC3)c3c2CCC3)CC1` [Example 33, 2-(3-(4-hydroxypiperidine-1-carbonyl)-5,6-dihydrocyclopenta[c]pyrazol-1(4H)-yl)-1-(4-(o-tolyloxy)piperidin-1-yl)ethanone], the pIC50 was 7.07.

Regarding `Cc1ccccc1OC1CCN(C(=O)Cn2nc(C(=O)N3CCC(O)(CF)CC3)c3c2CCC3)CC1` [Example 35, 2-(3-(4-(fluoromethyl)-4-hydroxypiperidine-1-carbonyl)-5,6-dihydrocyclopenta[c]pyrazol-1(4H)-yl)-1-(4-(o-tolyloxy)piperidin-1-yl)ethanone], the pIC50 is 6.85.

`Cc1ccccc1OC1CCN(C(=O)Cn2nc(C(=O)N3CC[C@@H](O)[C@@H](F)C3)c3c2CCCC3)CC1` [Example 36, 2-(3-((3S,4R)-3-fluoro-4-hydroxypiperidine-1-carbonyl)-4,5,6,7-tetrahydro-1H-indazol-1-yl)-1-(4-(o-tolyloxy)piperidin-1-yl)ethanone]: the pIC50 is 6.97.

`Cc1ccccc1OC1CCN(C(=O)Cn2nc(C(=O)N3CCN(C(=O)CO)CC3)c3c2CCCC3)CC1` [Example 38, 2-hydroxy-1-(4-(1-(2-oxo-2-(4-(o-tolyloxy)piperidin-1-yl)ethyl)-4,5,6,7-tetrahydro-1H-indazole-3-carbonyl)piperazin-1-yl)ethanone]: the pIC50 was 7.48.

Take `Cc1ccccc1OC1CCN(C(=O)Cn2nc(C(=O)N3CC[C@@H](O)[C@@H](F)C3)c3c2CCC3)CC1` [Example 40, 2-(3-((3S,4R)-3-fluoro-4-hydroxypiperidine-1-carbonyl)-5,6-dihydrocyclopenta[c]pyrazol-1(4H)-yl)-1-(4-(o-tolyloxy)piperidin-1-yl)ethanone]: the negative-log IC50 (pIC50) was 6.97.

For `C[C@@H]1C[C@H](Oc2ccccc2Cl)CCN1C(=O)Cn1nc(C(=O)N2CC[C@@H](O)[C@@H](F)C2)c2c1C[C@H]1C[C@@H]21` [Example 52, 1-((2R,4R)-4-(2-chlorophenoxy)-2-methylpiperidin-1-yl)-2-((3bR,4aR)-3-((3S,4R)-3-fluoro-4-hydroxypiperidine-1-carbonyl)-3b,4,4a,5-tetrahydro-1H-cyclopropa[3,4]cyclopenta[1,2-c]pyrazol-1-yl)ethanone], the pIC50 was 7.00.

Consider `Cc1cc(F)ccc1OC1CCN(C(=O)Cn2nc(C(=O)N3CCC(OCCO)CC3)c3c2CCCC3)CC1` [Example 76, 1-[4-(4-fluoro-2-methyl-phenoxy)-1-piperidyl]-2-[3-[4-(2-hydroxyethoxy)piperidine-1-carbonyl]-4,5,6,7-tetrahydroindazol-1-yl]ethanone], for which the pIC50 was 7.22.

As to `Cc1cc(F)ccc1OC1CCN(C(=O)Cn2nc(C(=O)N3CCC(F)(CO)CC3)c3c2CCCC3)CC1` [Example 78, 2-[3-[4-fluoro-4-(hydroxymethyl)piperidine-1-carbonyl]-4,5,6,7-tetrahydroindazol-1-yl]-1-[4-(4-fluoro-2-methyl-phenoxy)-1-piperidyl]ethanone], the pIC50 is 7.71.

As for `Cc1cc(F)ccc1OC1CCN(C(=O)Cn2nc(C(=O)N3CCN(C(=O)CO)CC3)c3c2CCCC3)CC1` [Example 79, 1-[4-(4-fluoro-2-methyl-phenoxy)-1-piperidyl]-2-[3-[4-(2-hydroxyacetyl)piperazine-1-carbonyl]-4,5,6,7-tetrahydroindazol-1-yl]ethanone], the pIC50 is 6.85.

As for `Cc1cc(F)ccc1OC1CCN(C(=O)Cn2nc(C(=O)N3CCC(F)(CO)CC3)c3c2CCC3)CC1` [Example 80, 2-[3-[4-fluoro-4-(hydroxymethyl)piperidine-1-carbonyl]-5,6-dihydro-4H-cyclopenta[c]pyrazol-1-yl]-1-[4-(4-fluoro-2-methyl-phenoxy)-1-piperidyl]ethanone], the pIC50 is 6.59.

Take `Cc1cc(F)ccc1OC1CCN(C(=O)Cn2nc(C(=O)N3CCO[C@H](CO)C3)c3c2CCCC3)CC1` [Example 81, 1-[4-(4-fluoro-2-methyl-phenoxy)-1-piperidyl]-2-[3-[(2S)-2-(hydroxymethyl)morpholine-4-carbonyl]-4,5,6,7-tetrahydroindazol-1-yl]ethanone]: the pIC50 is 7.05.

For the compound `Cc1ccc(F)cc1OC1CCN(C(=O)Cn2nc(C(=O)N3C[C@@H](C)O[C@@H](C)C3)c3c2CCC3)CC1` [Example 90, 2-(3-(cis-2,6-Dimethylmorpholine-4-carbonyl)-5,6-dihydrocyclopenta[c]pyrazol-1(4H)-yl)-1-(4-(5-fluoro-2-methylphenoxy)piperidin-1-yl)ethan-1-one], the pIC50 is 6.85.

`C[C@@H]1CN(C(=O)c2nn(CC(=O)N3CCC(Oc4cc(F)ccc4Br)CC3)c3c2CCC3)C[C@H](C)O1` [Example 91, 1-[4-(2-bromo-5-fluorophenoxy)piperidin-1-yl]-2-{3-[(2R,6S)-2,6-dimethylmorpholine-4-carbonyl]-5,6-dihydrocyclopenta[c]pyrazol-1(4H)-yl}ethan-1-one]: the pIC50 was 7.06.

Consider `Cc1ccc(Cl)c(OC2CCN(C(=O)Cn3nc(C(=O)N4C[C@@H](C)O[C@@H](C)C4)c4c3CCC4)CC2)c1` [Example 93, 1-[4-(2-chloro-5-methylphenoxy)piperidin-1-yl]-2-{3-[(2R,6S)-2,6-dimethylmorpholine-4-carbonyl]-5,6-dihydrocyclopenta[c]pyrazol-1(4H)-yl}ethan-1-one], for which the pIC50 is 6.58.

Turning to `Cc1ccc(OC2CCN(C(=O)Cn3nc(C(=O)N4C[C@@H](C)O[C@@H](C)C4)c4c3CCC4)CC2)cc1` [Example 95, 2-{3-[(2R,6S)-2,6-dimethylmorpholine-4-carbonyl]-5,6-dihydrocyclopenta[c]pyrazol-1(4H)-yl}-1-[4-(4-methylphenoxy)piperidin-1-yl]ethan-1-one], the pIC50 was 6.44.

Take `C[C@@H]1CN(C(=O)c2nn(CC(=O)N3CCC(Oc4cccc(F)c4)CC3)c3c2CCC3)C[C@H](C)O1` [Example 99, 2-{3-[(2R,6S)-2,6-dimethylmorpholine-4-carbonyl]-5,6-dihydrocyclopenta[c]pyrazol-1(4H)-yl}-1-[4-(3-fluorophenoxy)piperidin-1-yl]ethan-1-one]: the pIC50 was 6.24.

In the case of `Cc1ccccc1OC1CCN(C(=O)Cn2nc(C(=O)N3C[C@@H](C)O[C@@H](C)C3)c3c2CCC3)CC1` [Example 116, 2-{3-[(2R,6S)-2,6-dimethylmorpholine-4-carbonyl]-5,6-dihydrocyclopenta[c]pyrazol-1(4H)-yl}-1-[4-(2-methylphenoxy)piperidin-1-yl]ethan-1-one], the pIC50 is 7.33.

In the case of `C[C@@H]1CN(C(=O)c2nn(CC(=O)N3CCC(Oc4ccc(F)cc4Cl)CC3)c3c2CCC3)C[C@H](C)O1` [Example 117, 1-[4-(2-chloro-4-fluorophenoxy)piperidin-1-yl]-2-{3-[(2R,6S)-2,6-dimethylmorpholine-4-carbonyl]-5,6-dihydrocyclopenta[c]pyrazol-1(4H)-yl}ethan-1-one], the pIC50 was 6.31.

In the case of `Cc1c(F)cccc1OC1CCN(C(=O)Cn2nc(C(=O)N3C[C@@H](C)O[C@@H](C)C3)c3c2CCC3)CC1` [Example 128, 2-{3-[(2R,6S)-2,6-dimethylmorpholine-4-carbonyl]-5,6-dihydrocyclopenta[c]pyrazol-1(4H)-yl}-1-[4-(3-fluoro-2-methylphenoxy)piperidin-1-yl]ethan-1-one], the pIC50 was 7.31.

In the case of `C[C@@H]1CN(C(=O)c2nn(CC(=O)N3CCC(Oc4ccc(Cl)c5c4CCC5)CC3)c3c2CCC3)C[C@H](C)O1` [Example 129, 1-{4-[(7-chloro-2,3-dihydro-1H-inden-4-yl)oxy]piperidin-1-yl}-2-{3-[(2R,6S)-2,6-dimethylmorpholine-4-carbonyl]-5,6-dihydrocyclopenta[c]pyrazol-1(4H)-yl}ethan-1-one], the pIC50 is 5.48.

In the case of `C[C@@H]1CN(C(=O)c2nn(CC(=O)N3CCC(Oc4cc(F)ccc4Cl)CC3)c3c2CCC3)C[C@H](C)O1` [Example 133, 1-[4-(2-chloro-5-fluorophenoxy)piperidin-1-yl]-2-{3-[(2R,6S)-2,6-dimethylmorpholine-4-carbonyl]-5,6-dihydrocyclopenta[c]pyrazol-1(4H)-yl}ethan-1-one], the negative-log IC50 (pIC50) was 6.82.

The values above are taken from patent publication US12576087B2, “Aryloxypiperidine pyrazole compounds as indoleamine 2,3-dioxygenase inhibitors” (Merck Sharp & Dohme LLC, priority 2018, dated 2026).
